Laboratory results published in patent US20130131161A1, “METHODS AND COMPOSITIONS FOR CARDIOVASCULAR DISEASES AND CONDITIONS” (priority 2009, published 2013).
Values joined by “and” are separate entries in the source; they are usually repeats but may differ in a detail not shown here. Identical values can stand only once.

Tested on: Human umbilical vein endothelial cells (HUVECs)
Experiment: eNOS activity analysis: NO, ONOO− and NO/ONOO− release from HUVECs of 50 genotyped donors in response to LA-419 (Example 2)
Type: cell-based
Settings: LA-419 1 μM
Experimental: Concurrent measurements of NO and ONOO^− were carried out with tandem electrochemical nanosensors combined into one working unit with a total diameter of 200-500 nm (FIG. 1). Their design was based on previously developed and well-characterized chemically modified carbon-fiber technology (Malinski and Taha, 1992; Lvovich and Scheeline, 1997). Each of the nanosensors was made by depositing a sensing material on the tip of a carbon fiber (length 4-5 μm, diameter 0.2-0.5 μm). The fibers were sealed with nonconductive epoxy and electrically connected to copper wires with conductive silver epoxy. A conductive film of polymeric nickel (II) tetrakis(3-methoxy-4-hydroxyphenyl)porphyrin for the NO-sensor and polymeric film of Mn (III) [2.2]paracyclophanylporphyrin was used for the ONOO^−-sensor.
A module of NO/ONOO^− nanosensors (diameter 1-2 μm) with a platinum wire (0.1 mm) counter electrode and saturated calomel reference electrode (SCE) were applied. Differential pulse voltammetry (DPV) and amperometry were performed with a computer-based Gamry VFP600 multichannel potentiostat. DPV was used to measure the basal NO and ONOO^− concentrations, and amperometry was used to measure changes in NO and ONOO^− concentrations from its basal level with time. The DPV current at the peak potential characteristic for NO oxidation (0.65 V) and ONOO^− reduction (−0.45 V) was directly proportional to the local concentrations of these compounds in the immediate vicinity of the sensor. Linear calibration curves (current vs. concentration) were constructed for each sensor from 10 nM to 3 μM before and after measurements with aliquots of NO and ONOO^− standard solutions, respectively. The detection limit of the sensors was 1.0 nM.
The quantification of each analyte (concentration in nM) was performed using a maximum current from amperograms and standard calibration curves. A reproducibility of measurements with nanosensors is relatively high (between 5-12%). […] The sensors were slowly raised 5±2 μm from the surface of a single endothelial cell. The eNOS agonist, calcium ionophore A23187 (CaI) as well as the different drugs were then added to the surrounding media at the cell surface with a nanoinjector that was also positioned by a computer controlled-micromanipulator.
This example describes the genotype-specific response of the three major eNOS variants to 1 μM and 5 μM concentrations of LA-419. The three major genetic polymorphisms studied were the Glu298Asp variant (E298D or 894G→T) in exon 7 of […], the −786T→C variant in the promoter region, and the intron 4 polymorphism (VNTR). All of these variants have possible effects on the cardiovascular system and endothelial dysfunction. For this study, human umbilical vein endothelial cells (HUVECs) from 50 donors between 18 and 32 years of age were used.
For the analysis several analysis techniques were employed. First, the effect of genotype on NO and ONOO^− release was explored within the different concentrations of LA-419 (control, 1 μM, 5 μM), calculated as the average peak release (nmols/L) of NO, ONOO^−, and NO/ONOO^−. The effect of genotype on the net increase in NO, ONOO^−, and NO/ONOO^− for LA-419 (1 μM and 5 μM) as compared to control was also measured. In addition, an analysis was done on the effect of genotype on the % change in NO, ONOO^−, and NO/ONOO^− production for LA-419 (1 μM and 5 μM), calculated as:
% Change=[(avg. LA-419−avg. control)/(avg. control)]*100
Finally, an evaluation was undertaken concerning the effect of genotype on the production of NO, ONOO^−, and NO/ONOO^− as the fold difference of control for LA-419 (1 μM and 5 μM), calculated as:
Fold Difference=(avg. LA-419)/(avg. control)
Within each calculation technique the results were compared for statistical significance using a non-parametric ANOVA Kruskal-Wallace test or a non-parametric Mann-Whitney U test. Statistical significance was set at a p-value <0.05 in a two-tailed distribution. […]

[1] = HUVECs G894T + T-786C Combination of all genotypes other than G/G + T/T
[2] = HUVECs G894T + T-786C variant G/G + T/C
[3] = HUVECs G894T + T-786C variant G/G + T/T (Reference)
[4] = HUVECs G894T + T-786C variant G/T + C/C
[5] = HUVECs G894T + T-786C variant G/T + T/C
[6] = HUVECs G894T + T-786C variant G/T + T/T
[7] = HUVECs G894T + T-786C variant T/T + C/C
[8] = HUVECs G894T + T-786C variant T/T + T/C

## CC(=O)SC1COC2C(O[N+](=O)[O-])COC12 (stereo not drawn) [LA-419, S-(6-Nitro-oxi-hexahydro-furo[3,2-b]furan-3-1-il)thioacetate]
[1]
  Net increase over control NO/ONOO− (mean ± sd): −0.92 (0.90)
  Net increase over control ONOO− (mean ± sd): −42.43 (111.75) nmols/L
  Peak release NO (mean ± sd): 390.03 (73.13) nmols/L
  Peak release NO/ONOO− (mean ± sd): 1.29 (0.46)
  Peak release ONOO− (mean ± sd): 331.26 (91.43) nmols/L
[2]
  Net increase over control NO (mean ± sd): 5.33 (68.90) nmols/L
  Net increase over control NO/ONOO− (mean ± sd): −0.88 (0.63)
  Net increase over control ONOO− (mean ± sd): 13.13 (106.46) nmols/L
  Peak release NO (mean ± sd): 351.00 (88.83) nmols/L
  Peak release NO/ONOO− (mean ± sd): 1.09 (0.51)
  Peak release ONOO− (mean ± sd): 357.00 (94.18) nmols/L
[3]
  Net increase over control NO (mean ± sd): 31.22 (71.86) nmols/L
  Net increase over control NO/ONOO− (mean ± sd): 1.16 (9.12)
  Net increase over control ONOO− (mean ± sd): −32.54 (86.18) nmols/L
  Peak release NO (mean ± sd): 374.30 (78.06) nmols/L
  Peak release NO/ONOO− (mean ± sd): 1.19 (0.43)
  Peak release ONOO− (mean ± sd): 338.98 (81.16) nmols/L
[4]
  Net increase over control NO (mean ± sd): −53.67 (0) nmols/L
  Net increase over control NO/ONOO− (mean ± sd): −0.24 (0)
  Net increase over control ONOO− (mean ± sd): 228.33 (0) nmols/L
  Peak release NO (mean ± sd): 334.67 (0) nmols/L
  Peak release NO/ONOO− (mean ± sd): 0.64 (0)
  Peak release ONOO− (mean ± sd): 526.67 (0) nmols/L
[5]
  Net increase over control NO (mean ± sd): 76.26 (75.55) nmols/L
  Net increase over control NO/ONOO− (mean ± sd): −1.21 (1.06)
  Net increase over control ONOO− (mean ± sd): −81.10 (79.76) nmols/L
  Peak release NO (mean ± sd): 420.44 (56.87) nmols/L
  Peak release NO/ONOO− (mean ± sd): 1.44 (0.32)
  Peak release ONOO− (mean ± sd): 302.82 (59.66) nmols/L
[6]
  Net increase over control NO (mean ± sd): 28.92 (13.00) nmols/L
  Net increase over control NO/ONOO− (mean ± sd): −0.99 (1.06)
  Net increase over control ONOO− (mean ± sd): −2.83 (64.48) nmols/L
  Peak release NO (mean ± sd): 409.67 (64.25) nmols/L
  Peak release NO/ONOO− (mean ± sd): 1.37 (0.44)
  Peak release ONOO− (mean ± sd): 321.58 (90.82) nmols/L
[7]
  Net increase over control NO (mean ± sd): 20.67 (16.77) nmols/L
  Net increase over control NO/ONOO− (mean ± sd): −0.56 (0.56)
  Net increase over control ONOO− (mean ± sd): −42.44 (9.91) nmols/L
  Peak release NO (mean ± sd): 334.11 (83.36) nmols/L
  Peak release NO/ONOO− (mean ± sd): 0.96 (0.58)
  Peak release ONOO− (mean ± sd): 398.00 (131.00) nmols/L
[8]
  Net increase over control NO (mean ± sd): 20.83 (131.76) nmols/L
  Net increase over control NO/ONOO− (mean ± sd): 0.07 (0.61)
  Net increase over control ONOO− (mean ± sd): −227.83 (117.62) nmols/L
  Peak release NO (mean ± sd): 420.83 (4.48) nmols/L
  Peak release NO/ONOO− (mean ± sd): 1.80 (0.16)
  Peak release ONOO− (mean ± sd): 234.67 (23.10) nmols/L
HUVECs G894T variant G/G
  % Change Ratio, % Change NO/% Change ONOO− (mean ± sd): 0.76 (8.64)
  Net increase over control NO (mean ± sd): 23.26 (70.68) nmols/L and 23.26 (70.64) nmols/L
  Net increase over control NO/ONOO− (mean ± sd): 0.53 (7.59)
  Net increase over control ONOO− (mean ± sd): −18.49 (93.20) nmols/L
  Peak release NO (mean ± sd): 367.13 (80.46) nmols/L
  Peak release NO/ONOO− (mean ± sd): 1.16 (0.45)
  Peak release ONOO− (mean ± sd): 344.53 (83.88) nmols/L
HUVECs G894T variant G/T
  % Change Ratio, % Change NO/% Change ONOO− (mean ± sd): −1.15 (0.91)
  Net increase over control NO (mean ± sd): 58.52 (72.43) nmols/L
  Net increase over control NO/ONOO− (mean ± sd): −1.12 (1.02)
  Net increase over control ONOO− (mean ± sd): −46.52 (105.03) nmols/L
  Peak release NO (mean ± sd): 413.28 (58.46) nmols/L
  Peak release NO/ONOO− (mean ± sd): 1.38 (0.38)
  Peak release ONOO− (mean ± sd): 319.43 (81.89) nmols/L
HUVECs G894T variant G/T & T/T
  Net increase over control NO (mean ± sd): 50.30 (71.57) nmols/L
  Net increase over control NO/ONOO− (mean ± sd): −0.93 (0.99)
  Net increase over control ONOO− (mean ± sd): −61.75 (109.14) nmols/L
  Peak release NO (mean ± sd): 403.61 (63.52) nmols/L
  Peak release NO/ONOO− (mean ± sd): 1.36 (0.43)
  Peak release ONOO− (mean ± sd): 322.30 (90.85) nmols/L
HUVECs G894T variant T/T
  % Change Ratio, % Change NO/% Change ONOO− (mean ± sd): −0.66 (1.02)
  Net increase over control NO (mean ± sd): 20.73 (66.94) nmols/L
  Net increase over control NO/ONOO− (mean ± sd): −0.31 (0.61)
  Net increase over control ONOO− (mean ± sd): −116.60 (117.55) nmols/L
  Peak release NO (mean ± sd): 368.80 (75.73) nmols/L
  Peak release NO/ONOO− (mean ± sd): 1.29 (0.63)
  Peak release ONOO− (mean ± sd): 332.67 (129.30) nmols/L
HUVECs Intron 4 variant a/a
  Net increase over control NO (mean ± sd): −25.78 (104.49) nmols/L
  Net increase over control NO/ONOO− (mean ± sd): −0.11 (0.56)
  Net increase over control ONOO− (mean ± sd): 26.11 (116.99) nmols/L
  Peak release NO (mean ± sd): 360.56 (80.60) nmols/L
  Peak release NO/ONOO− (mean ± sd): 0.97 (0.57)
  Peak release ONOO− (mean ± sd): 421.11 (124.25) nmols/L
HUVECs Intron 4 variant b/a
  Net increase over control NO (mean ± sd): 56.57 (67.97) nmols/L
  Net increase over control NO/ONOO− (mean ± sd): 0.28 (0.43)
